According to PubChem BioAssay AID1417 (Emory University Molecular Libraries Screening Center, 2008):

These molecules were tested against Induced myeloid leukemia cell differentiation protein Mcl-1 (Homo sapiens) (UniProt Q07820) (assay: Mcl-1 Noxa peptide disruption concentration-response – biochemical, TR-FRET, dose response (AID 1417)). Conditions: Mcl-1/Noxa peptide interaction, cell-free TR-FRET (terbium/rhodamine), 2 h; measured here: absolute IC50.
Sequence of Induced myeloid leukemia cell differentiation protein Mcl-1 (Homo sapiens) (Q07820 whole entry, looked up): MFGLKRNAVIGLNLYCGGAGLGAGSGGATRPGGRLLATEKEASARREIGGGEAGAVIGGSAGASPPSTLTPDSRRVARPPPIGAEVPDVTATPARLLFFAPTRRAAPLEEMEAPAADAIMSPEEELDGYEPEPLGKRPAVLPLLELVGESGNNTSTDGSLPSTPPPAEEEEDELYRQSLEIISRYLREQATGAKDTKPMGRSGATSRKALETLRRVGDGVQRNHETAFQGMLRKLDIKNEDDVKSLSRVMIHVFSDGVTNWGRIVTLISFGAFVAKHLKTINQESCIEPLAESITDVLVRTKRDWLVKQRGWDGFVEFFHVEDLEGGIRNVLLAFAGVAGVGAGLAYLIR
`O=C(N=Nc1c(O)n(Cc2ccccc2)c2ccccc12)c1cc2ccccc2cc1O` gave an IC50 of 4.76 µM. `O=C(Nc1ccc(N2CCCC2)cc1)c1ccc(Br)o1` gave an IC50 of 1.06 µM. With `Cc1ccc(-c2cc(C(=O)O)c3cc(Br)ccc3n2)o1` the IC50 was 4.68 µM. In the case of `COc1ccc(/C=N/NC(=O)c2cc(O)c(O)c(O)c2)cc1Cn1cc([N+](=O)[O-])cn1`, the IC50 is reported as less than 0.4 µM. For `O=C(NCc1ccccn1)c1ccc2nc(-c3ccco3)c(-c3ccco3)nc2c1`, the IC50 was 1.38 µM. With `O=C(Nc1nc(-c2ccncc2)cs1)c1ccco1` the IC50 was 3.61 µM. Molecule `COC(=O)c1ccc2nc(Nc3nc4ccc(F)cc4s3)sc2c1` has an IC50 of 1.75 µM. Molecule `Nc1nc(=S)c2ncn(C3OC(CO)C(O)C3O)c2[nH]1` (centres undefined) has an IC50 of 9.52 µM. `Cc1n[nH]c(=S)n(NC(=O)/C=C/C(=O)Nn2c(=S)[nH]nc(C)c2=O)c1=O` gave an IC50 of less than 0.4 µM. For `Clc1cccc(N/N=C/c2ccc(N3CCOCC3)s2)c1`, the IC50 was less than 0.4 µM. Molecule `CNc1ccc(Br)cc(C(=O)/C=C/c2cc(OC)ccc2OC)c1=O` has an IC50 of 1.73 µM. With `Cc1cccc(C)c1NC(=O)CSc1nnc(-c2ccco2)c(-c2ccco2)n1` the IC50 was 1.93 µM. `CC(=O)Nc1sc(N/N=C\c2ccco2)nc1-c1cccs1` showed an IC50 of 10.6 µM. For `COc1ccc(C(=O)N2c3ccccc3CC2C)cc1OC` (centres undefined), the IC50 was greater than 54 µM. `C=CCN=c1scc(-c2ccco2)n1/N=C/c1ccc(O)c(O)c1O` was tested, and the IC50 was greater than 54 µM. Molecule `COc1cc(/C=C2/SC(=S)NC2=O)ccc1OS(=O)(=O)c1ccc(C)cc1` has an IC50 of 3.26 µM. `COc1ccc(/C=C2/SC(=S)N(c3ccc(S(=O)(=O)Nc4nccs4)cc3)C2=O)cc1` gave an IC50 of 0.999 µM. For `O=C(Nc1ccccc1Cl)c1cnccn1`, the IC50 was greater than 54 µM. Molecule `CCC(=O)Oc1ccc2c(=O)c(-c3ccc4ccccc4n3)c(CC)oc2c1C` has an IC50 greater than 54 µM. For `O=C(/C=C1\NC2(CCCC2)Cc2ccccc21)C(=O)N/N=C/c1ccc(O)c(O)c1`, the IC50 was 3.47 µM. Molecule `O=C(Cc1csc(N2CCOCC2)n1)N/N=C/c1ccc(O)c(O)c1O` has an IC50 of less than 0.4 µM. For `O=C(Nc1ccc(N2CCOCC2)cc1)Nc1ccc2nc(-c3ccco3)c(-c3ccco3)nc2c1`, the IC50 was less than 0.4 µM. `CCN(c1ccc(NC(=O)COC(=O)c2cccs2)cc1)C(C)C` showed an IC50 greater than 54 µM. In the case of `CCOC(=O)c1cc(C(O)(C(=O)OC)C(F)(F)F)c(/N=C/N(C)C)o1` (centres undefined), the IC50 is reported as greater than 54 µM. In the case of `COc1ccc(N2CCC(CNC(=O)Nc3ccccc3)C2)cc1` (centres undefined), the IC50 is reported as less than 0.4 µM. In the case of `COc1ccc(C2=CC(=O)C=CC2=O)cc1`, the IC50 is reported as less than 0.4 µM. `O=C(O)CCn1cc(C=C2C(=O)NC(=S)NC2=O)c(-c2cc3ccccc3oc2=O)n1` was tested, and the IC50 was 3.08 µM. For `Cc1ccc(NC(=O)CN2C(=O)N/C(=C/c3cccn3-c3ccc(C(=O)O)cc3)C2=O)cc1`, the IC50 was greater than 54 µM. Work on `CC(/C=C1\SC(=S)N(CCCC(=O)Nc2ccc(C(=O)O)c(O)c2)C1=O)=C\c1ccccc1` yielded an IC50 of less than 0.4 µM. `CCc1nc(Nc2ccc(N3CCN(C(C)=O)CC3)cc2)c2oc3ccccc3c2n1` gave an IC50 greater than 54 µM. In the case of `O=[N+]([O-])c1ccc(-c2cn(-c3ccc(Cl)cc3)c(=S)[nH]2)cc1`, the IC50 is reported as 7.17 µM. `OCCNc1nc(Nc2ccccc2)nc(Nc2ccccc2)n1` showed an IC50 greater than 54 µM. With `CCOC(=O)c1ccc(N=Nc2c(C)c(C#N)c(O)[nH]c2=O)cc1` the IC50 was 2.84 µM. `Cc1cc(-c2nc3c4c5c(sc4[nH]c(=O)n3n2)CCC5)c(C)o1` was tested, and the IC50 was less than 0.4 µM. `O=c1oc2c(O)c(O)cc3c(=O)oc4c(O)c(O)cc1c4c23` gave an IC50 of less than 0.4 µM. For `O=C(O)COc1ccccc1C(Nc1cccnc1)c1cc(Cl)c2cccnc2c1O` (centres undefined), the IC50 was less than 0.4 µM. `Cc1ccc(N2C(=O)NC(=O)/C(=C/c3ccoc3)C2=O)cc1` was tested, and the IC50 was 4.36 µM. In the case of `O=C(N/N=C/c1cccc(F)c1)c1cc(-c2ccco2)nc2ccccc12`, the IC50 is reported as less than 0.4 µM. Work on `CCN(CC)Cc1cc(O)c(CN(CC)CC)cc1O` yielded an IC50 of less than 0.4 µM. `CN1CCN(c2ccc(Cl)cc2NC(=O)c2ccc(S(=O)(=O)N3CCCCCC3)cc2)CC1` gave an IC50 of 3.89 µM. In the case of `COc1ccccc1/C=C1/SC(=O)N(CCC(=O)Nc2ccc(S(=O)(=O)Nc3nccs3)cc2)C1=O`, the IC50 is reported as 2.85 µM. `O=C(O)c1ccc(NC2=C/C(=N/S(=O)(=O)c3ccccc3)c3ccccc3C2=O)cc1` gave an IC50 of less than 0.4 µM. Molecule `O=C1Nc2ccccc2/C1=N/N=C/c1ccc(-c2ccc([N+](=O)[O-])cc2)o1` has an IC50 of less than 0.4 µM. For `CN(C)S(=O)(=O)c1cccc(NC(=S)N/N=C/c2ccc(O)c(O)c2O)c1`, the IC50 was less than 0.4 µM. Work on `Cc1ccc(N2C(=O)NC(=O)/C(=C\c3cnc(-c4ccccc4)nc3)C2=O)cc1` yielded an IC50 of 20.2 µM. For `CCC(=O)N(CC)C1=C(O)c2ccccc2C(=O)C1=O`, the IC50 was 0.997 µM. In the case of `CNc1ccc(Br)cc(C(=O)/C=C/c2ccc(OC)cc2OC)c1=O`, the IC50 is reported as 3.53 µM. `O=C(c1ccccc1)c1ccc2nc(-c3ccco3)c(-c3ccco3)nc2c1` showed an IC50 of 4.34 µM. With `Cc1ccc(S(=O)(=O)Nc2ccc(N(C)C)cc2)cc1` the IC50 was greater than 54 µM. In the case of `c1ccc(Nc2cccc(Nc3ccccc3)c2)cc1`, the IC50 is reported as greater than 54 µM. For `Cc1ccc(CSc2nnc(SCC(=O)N/N=C/c3c[nH]c4ccccc34)s2)cc1`, the IC50 was 10.1 µM. In the case of `CN(C)c1ccc(NC(=O)CCCc2ccccc2)cc1`, the IC50 is reported as greater than 54 µM. Work on `Cc1ccc(/C=C2\SC(=S)N(Cc3ccccc3)C2=O)o1` yielded an IC50 greater than 54 µM. `CCC1(C(=O)OC)CCc2c(cc(OC)c3ccccc23)C1=O` (centres undefined) gave an IC50 of 48.1 µM.
